Laboratory results published in patent US20210070748A1, “INHIBITORS OF BRUTONS TYROSINE KINASE” (Pharmacyclics LLC, priority 2015, published 2021).

What was measured:
BTK-WT = biological target: T1, BTK-WT (Homo sapiens, UniProt Q06187); test: Btk in vitro inhibitory activity (one of Method A TR-FRET, Method B electrophoretic mobility shift, Method C radiometric filter binding); assay type: biochemical; settings: D-compounds panel data; read-out: IC50 BTK-WT
T1 construct: purified from insect cells as a full-length construct containing an N-terminal 6X-His tag; His6 (N); made in house; host or cells: insect cells (baculovirus Sf21 in Method B)
T1 sequence (Q06187 whole entry): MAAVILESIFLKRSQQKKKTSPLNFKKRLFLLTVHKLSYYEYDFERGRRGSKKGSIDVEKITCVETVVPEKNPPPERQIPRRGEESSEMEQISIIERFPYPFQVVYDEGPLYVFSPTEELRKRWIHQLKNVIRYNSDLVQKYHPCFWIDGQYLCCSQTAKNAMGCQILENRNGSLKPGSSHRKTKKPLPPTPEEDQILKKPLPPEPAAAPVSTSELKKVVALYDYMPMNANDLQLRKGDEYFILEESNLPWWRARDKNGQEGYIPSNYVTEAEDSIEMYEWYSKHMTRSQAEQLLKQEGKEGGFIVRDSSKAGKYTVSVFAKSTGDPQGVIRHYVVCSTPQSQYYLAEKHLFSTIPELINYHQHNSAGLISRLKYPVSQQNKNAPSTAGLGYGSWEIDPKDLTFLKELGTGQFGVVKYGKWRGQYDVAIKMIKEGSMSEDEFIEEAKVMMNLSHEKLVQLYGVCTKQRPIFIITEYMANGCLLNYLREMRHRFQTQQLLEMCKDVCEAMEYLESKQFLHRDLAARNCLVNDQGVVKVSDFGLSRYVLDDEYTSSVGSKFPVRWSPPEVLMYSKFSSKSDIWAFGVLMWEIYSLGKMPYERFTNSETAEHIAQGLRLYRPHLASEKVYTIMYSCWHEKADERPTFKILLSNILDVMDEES

ITK = biological target: T2, ITK (Homo sapiens, UniProt Q08881); test: Inhibition of a panel of kinases, in vitro HotSpot kinase assay: ITK; assay type: biochemical; settings: D-compounds panel data; 1 μM ATP
T2 sequence (Q08881 1-620): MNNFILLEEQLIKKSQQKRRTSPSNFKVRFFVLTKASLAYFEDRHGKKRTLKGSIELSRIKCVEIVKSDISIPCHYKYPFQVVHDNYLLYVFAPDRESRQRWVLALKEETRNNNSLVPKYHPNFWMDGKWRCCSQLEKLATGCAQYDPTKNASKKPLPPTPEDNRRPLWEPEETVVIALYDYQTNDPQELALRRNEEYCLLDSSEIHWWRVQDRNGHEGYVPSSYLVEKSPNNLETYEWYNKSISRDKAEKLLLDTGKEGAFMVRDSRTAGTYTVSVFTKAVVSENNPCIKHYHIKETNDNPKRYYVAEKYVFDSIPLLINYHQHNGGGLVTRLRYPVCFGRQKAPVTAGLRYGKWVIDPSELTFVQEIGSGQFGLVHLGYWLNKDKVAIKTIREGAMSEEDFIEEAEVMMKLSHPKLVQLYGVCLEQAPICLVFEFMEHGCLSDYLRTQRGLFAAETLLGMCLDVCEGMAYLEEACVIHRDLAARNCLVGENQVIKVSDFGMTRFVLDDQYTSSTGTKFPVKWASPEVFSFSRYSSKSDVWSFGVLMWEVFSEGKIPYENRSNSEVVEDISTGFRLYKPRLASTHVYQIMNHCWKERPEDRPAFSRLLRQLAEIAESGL
Method: The degree of inhibition of a panel of kinases is determined using the in vitro HotSpot kinase assay (purified enzymes, ^33P-ATP, an appropriate substrate and 1 μM ATP).

COCCn1cc(Nc2nc(N3CCC[C@@H](NC(=O)c4ccc(C5CC5)cc4)[C@H]3C)cnc2C(N)=O)cn1 [Example D-270, 5-[(2R,3R)-3-(4-cyclopropylbenzamido)-2-methylpiperidin-1-yl]-3-{[1-(2-methoxyethyl)-1H-pyrazol-4-yl]amino}pyrazine-2-carboxamide]
IC50 (BTK-WT): ≤ 10 nM
IC50 (ITK): 100 to 1000 nM

C[C@@H]1[C@H](NC(=O)c2ccc(C3CC3)cc2)CCCN1c1cnc(C(N)=O)c(Nc2ccc3c(c2)CCOC3)n1 [Example D-303, 5-[(2R,3R)-3-(4-cyclopropylbenzamido)-2-methylpiperidin-1-yl]-3-[(3,4-dihydro-1H-2-benzopyran-6-yl)amino]pyrazine-2-carboxamide]
IC50 (BTK-WT): 10 to 100 nM
IC50 (ITK): 1000 to 10000 nM

C[C@@H]1[C@H](NC(=O)c2ccc(C3CC3)cc2)CCCN1c1cnc(C(N)=O)c(Nc2cnn(CCO)c2)n1 [Example D-281, 5-[(2R,3R)-3-(4-cyclopropylbenzamido)-2-methylpiperidin-1-yl]-3-{[I-(2-hydroxyethyl)-1H-pyrazol-4-yl]amino}pyrazine-2-carboxamide]
IC50 (BTK-WT): ≤ 10 nM
IC50 (ITK): 100 to 1000 nM

C[C@@H]1[C@H](NC(=O)c2ccc(C3CC3)c(O)c2)CCCN1c1cnc(C(N)=O)c(Nc2cnn(C)c2)n1 [Example D-245, 5-[(2R,3R)-3-(4-cyclopropyl-3-hydroxybenzamido)-2-methylpiperidin-1-yl]-3-[(1-methyl-1H-pyrazol-4-yl)amino]pyrazine-2-carboxamide]
IC50 (BTK-WT): ≤ 10 nM
IC50 (ITK): 100 to 1000 nM

Cc1nn(C)cc1Nc1nc(N2CCC[C@@H](NC(=O)c3ccc(C4CC4)cc3)[C@H]2C)cnc1C(N)=O [Example D-272, 5-[(2R,3R)-3-(4-cyclopropylbenzamido)-2-methylpiperidin-1-yl]-3-[(1,3-dimethyl-1H-pyrazol-4-yl)amino]pyrazine-2-carboxamide]
IC50 (BTK-WT): 10 to 100 nM
IC50 (ITK): > 10000 nM

C[C@@H]1[C@H](NC(=O)c2ccc(C(C)(C)O)cc2F)CCCN1c1nnc(C(N)=O)c(Nc2cnn(C)c2)n1 [Example D-308, 3-[(2R,3R)-3-[2-fluoro-4-(2-hydroxypropan-2-yl)benzamido]-2-methylpiperidin-1-yl]-5-[(1-methyl-1H-pyrazol-4-yl)amino]-1,2,4-triazine-6-carboxamide]
IC50 (BTK-WT): ≤ 10 nM
IC50 (ITK): 10 to 100 nM

C[C@@H]1[C@H](NC(=O)c2ccc(C(N)=O)cc2)CCCN1c1cnc(C(N)=O)c(Nc2cnn(C)c2)n1 [Example D-268, 1-N-[(2R,3R)-1-{5-carbamoyl-6-[(1-methyl-1H-pyrazol-4-yl)amino]pyrazin-2-yl}-2-methylpiperidin-3-yl]benzene-1,4-dicarboxamide]
IC50 (BTK-WT): ≤ 10 nM
IC50 (ITK): 100 to 1000 nM

COCCN(C)c1ccc(C(=O)N[C@@H]2CCCN(c3cnc(C(N)=O)c(Nc4cnn(C)c4)n3)[C@@H]2C)cc1 [Example D-248, 5-[(2R,3R)-3-{4-[(2-methoxyethyl)(methyl)amino]benzamido}-2-methylpiperidin-1-yl]-3-[(1-methyl-1H-pyrazol-4-yl)amino]pyrazine-2-carboxamide]
IC50 (BTK-WT): ≤ 10 nM
IC50 (ITK): 100 to 1000 nM

C[C@@H]1[C@H](NC(=O)c2ccc(C3CC3)cc2)CCCN1c1cnc(C(N)=O)c(NCC2=CCN(C)CC2)n1 [Example D-300, 5-[(2R,3R)-3-(4-cyclopropylbenzamido)-2-methylpiperidin-1-yl]-3-{[(1-methyl-1,2,3,6-tetrahydropyridin-4-yl)methyl]amino}pyrazine-2-carboxamide]
IC50 (BTK-WT): > 10000 nM
IC50 (ITK): > 10000 nM

C[C@@H]1[C@H](NC(=O)c2ccc(C(C)(O)CO)cc2)CCCN1c1cnc(C(N)=O)c(Nc2cnn(C)c2)n1 (single isomer, unassigned) [Example D-256]
IC50 (BTK-WT): ≤ 10 nM
IC50 (ITK): 100 to 1000 nM

C[C@@H]1[C@H](NC(=O)c2ccc(C(C)(C)F)cc2)CCCN1c1cnc(C(N)=O)c(Nc2cnn(C)c2)n1 [Example D-251, 5-[(2R,3R)-3-[4-(2-fluoropropan-2-yl)benzamido]-2-methylpiperidin-1-yl]-3-[(1-methyl-1H-pyrazol-4-yl)amino]pyrazine-2-carboxamide]
IC50 (BTK-WT): ≤ 10 nM
IC50 (ITK): 100 to 1000 nM
